# Assays:
# Male CD-1 mice = assay: Maximal Electroshock induced Seizure (MES) assay in mice; type: in vivo, mouse; conditions: 35% HPCD, recorded up to 60 seconds post stimulus
# Protocol: Male CD-1 mice, weighing 25-35 g were assessed in the Maximal Electroshock induced Seizure (MES) assay. Briefly, mice were dosed with compound (n=12/group) according to the dosing parameters in Table 20 and the latency to induce tonic hind limb extension following transauricular electrical stimulation (50 Hz, 50 mA, 0.8 sec duration, pulse width of 10 ins) was recorded up to 60 seconds post stimulus.
# hNaV1.7-WT = biological target: T1, hNaV1.7-WT (Homo sapiens, UniProt Q15858); assay: Voltage step activated sodium current (Peak INa), PatchXpress, HEK-293; type: cell-based; conditions: HEK293; percent inhibition measured at 1 μM; step to 0 mV from half-inactivation holding potential
# T1 construct: expressed in transfected cells; host or cells: HEK-293
# T1 sequence (Q15858 whole entry): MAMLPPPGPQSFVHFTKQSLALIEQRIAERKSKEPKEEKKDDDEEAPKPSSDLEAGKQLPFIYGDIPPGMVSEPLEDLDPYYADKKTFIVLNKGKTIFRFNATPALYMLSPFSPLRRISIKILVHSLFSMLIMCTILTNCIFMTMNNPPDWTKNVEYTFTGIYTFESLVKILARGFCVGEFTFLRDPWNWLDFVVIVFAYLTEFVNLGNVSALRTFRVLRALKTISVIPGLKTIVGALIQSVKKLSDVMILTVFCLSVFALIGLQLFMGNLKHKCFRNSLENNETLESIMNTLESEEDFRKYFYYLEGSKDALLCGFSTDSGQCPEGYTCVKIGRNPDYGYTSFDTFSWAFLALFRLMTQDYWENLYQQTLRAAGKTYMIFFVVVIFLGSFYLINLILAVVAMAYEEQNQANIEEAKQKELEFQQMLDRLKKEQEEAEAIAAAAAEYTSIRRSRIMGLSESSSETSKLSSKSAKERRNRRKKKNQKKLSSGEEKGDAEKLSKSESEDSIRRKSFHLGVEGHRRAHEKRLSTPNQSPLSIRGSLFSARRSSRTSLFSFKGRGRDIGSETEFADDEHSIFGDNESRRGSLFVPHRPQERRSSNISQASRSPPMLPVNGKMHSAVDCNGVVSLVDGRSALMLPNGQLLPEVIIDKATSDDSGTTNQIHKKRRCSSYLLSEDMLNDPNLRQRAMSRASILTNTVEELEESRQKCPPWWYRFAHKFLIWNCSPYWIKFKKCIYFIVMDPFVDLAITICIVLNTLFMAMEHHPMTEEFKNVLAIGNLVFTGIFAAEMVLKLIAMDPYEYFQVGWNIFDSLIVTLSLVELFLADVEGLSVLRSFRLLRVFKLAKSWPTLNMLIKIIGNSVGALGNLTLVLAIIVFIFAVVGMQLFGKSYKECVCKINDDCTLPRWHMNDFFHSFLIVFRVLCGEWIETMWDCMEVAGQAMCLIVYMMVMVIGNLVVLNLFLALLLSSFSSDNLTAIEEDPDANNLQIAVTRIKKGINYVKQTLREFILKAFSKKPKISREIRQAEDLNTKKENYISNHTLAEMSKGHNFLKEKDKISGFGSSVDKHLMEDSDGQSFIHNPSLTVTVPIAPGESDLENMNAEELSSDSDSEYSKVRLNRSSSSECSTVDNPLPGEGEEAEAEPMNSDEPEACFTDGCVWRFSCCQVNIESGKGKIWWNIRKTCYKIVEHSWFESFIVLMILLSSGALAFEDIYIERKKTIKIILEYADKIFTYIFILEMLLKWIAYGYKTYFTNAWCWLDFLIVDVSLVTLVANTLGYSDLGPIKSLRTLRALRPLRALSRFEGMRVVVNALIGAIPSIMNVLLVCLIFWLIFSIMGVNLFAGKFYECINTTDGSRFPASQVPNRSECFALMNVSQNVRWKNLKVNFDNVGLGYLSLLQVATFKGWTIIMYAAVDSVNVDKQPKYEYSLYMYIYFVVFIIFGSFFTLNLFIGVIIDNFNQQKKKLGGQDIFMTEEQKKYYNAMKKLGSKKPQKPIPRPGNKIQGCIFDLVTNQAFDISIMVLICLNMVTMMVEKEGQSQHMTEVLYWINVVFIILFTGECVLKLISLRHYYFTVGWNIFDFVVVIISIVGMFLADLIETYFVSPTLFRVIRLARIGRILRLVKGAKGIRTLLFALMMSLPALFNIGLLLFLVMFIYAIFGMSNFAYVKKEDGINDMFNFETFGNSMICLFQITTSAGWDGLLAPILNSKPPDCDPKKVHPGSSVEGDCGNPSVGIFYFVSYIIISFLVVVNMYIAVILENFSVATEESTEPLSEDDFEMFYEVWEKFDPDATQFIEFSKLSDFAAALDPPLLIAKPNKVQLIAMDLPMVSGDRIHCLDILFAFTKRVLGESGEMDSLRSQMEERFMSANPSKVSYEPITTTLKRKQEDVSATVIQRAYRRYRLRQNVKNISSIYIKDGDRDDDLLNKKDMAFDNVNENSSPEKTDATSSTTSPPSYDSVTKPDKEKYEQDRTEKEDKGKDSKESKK
# Protocol: (§1) Functional characterization of exemplary compounds to modulate INa expressed by various human isoforms and disease-causing mutant voltage-gated sodium channels was accomplished using the PatchXpress high throughput electrophysiology platform (Molecular Devices, Sunnyvale, Calif.). HEK-293 cells expressing a recombinant, human NaV1.X sodium channel (either hNaV1.6-WT, hNaV1.6-R223G, hNaV1.6-N984K, hNaV1.6-N1768D, hNaV1.1-WT, hNaV1.2-WT, hNaV1.5-WT, hNaV1.7-WT, or hNaV1.8-WT) were grown in DMEM/high-glucose Dulbecco's modified, 10% FBS, 2 mM sodium pyruvate, 10 mM HEPES and 400 μg/mL G418. Cells were grown to 50%-80% confluency prior to harvesting. Trypsinized cells were washed, allowed to recover for 1 hour and then resuspended in extracellular recording solution at a concentration of 1×10^6 cells/ml. The onboard liquid handling facility of the PatchXpress was used for dispensing cells and applying test compounds. INa amplitude and stability were determined by analyzing the peak current amplitude.
# (§2) Peak INa was evoked by depolarizing steps to 0 mV for 20 ms from a holding potential which evoked half-inactivation (e.g., −60 mV) at a frequency of 0.1 Hz. The voltage of half-inactivation was determined for each cell using a 5 sec prepulse to membrane potentials between −120 mV and −20 mV followed immediately by a voltage step to a fully activating membrane voltage (e.g., 0 mV). Following steady state block with exemplary compounds (e.g., as described herein), the degree of inhibition was measured using the average of three consecutive voltage steps. Percent steady-state inhibition of INa was calculated as: [(INa_compound)/(INa_control)]*100, where INa_compound and INa_control represent INa recorded in the presence or absence of compound, respectively.
# (§3) In this table, “A” indicates inhibition between less than 0% to 50% and “B” indicates inhibition of greater than 50% and N/A indicates the compound was not tested.
# hNaV1.1-WT = biological target: T2, hNaV1.1-WT (Homo sapiens, UniProt P35498); assay: as above; type: cell-based; conditions: percent inhibition measured at 1 μM; step to 0 mV from half-inactivation holding potential
# T2 construct: expressed in transfected cells; host or cells: HEK-293
# Protocol: as §1, §2, §3
# hNaV1.5-WT = biological target: T3, hNaV1.5-WT (Homo sapiens, UniProt Q14524); assay: as above; type: cell-based; conditions: HEK293; percent inhibition measured at 1 μM; step to 0 mV from half-inactivation holding potential
# T3 construct: expressed in transfected cells; host or cells: HEK-293
# T3 sequence (Q14524 whole entry): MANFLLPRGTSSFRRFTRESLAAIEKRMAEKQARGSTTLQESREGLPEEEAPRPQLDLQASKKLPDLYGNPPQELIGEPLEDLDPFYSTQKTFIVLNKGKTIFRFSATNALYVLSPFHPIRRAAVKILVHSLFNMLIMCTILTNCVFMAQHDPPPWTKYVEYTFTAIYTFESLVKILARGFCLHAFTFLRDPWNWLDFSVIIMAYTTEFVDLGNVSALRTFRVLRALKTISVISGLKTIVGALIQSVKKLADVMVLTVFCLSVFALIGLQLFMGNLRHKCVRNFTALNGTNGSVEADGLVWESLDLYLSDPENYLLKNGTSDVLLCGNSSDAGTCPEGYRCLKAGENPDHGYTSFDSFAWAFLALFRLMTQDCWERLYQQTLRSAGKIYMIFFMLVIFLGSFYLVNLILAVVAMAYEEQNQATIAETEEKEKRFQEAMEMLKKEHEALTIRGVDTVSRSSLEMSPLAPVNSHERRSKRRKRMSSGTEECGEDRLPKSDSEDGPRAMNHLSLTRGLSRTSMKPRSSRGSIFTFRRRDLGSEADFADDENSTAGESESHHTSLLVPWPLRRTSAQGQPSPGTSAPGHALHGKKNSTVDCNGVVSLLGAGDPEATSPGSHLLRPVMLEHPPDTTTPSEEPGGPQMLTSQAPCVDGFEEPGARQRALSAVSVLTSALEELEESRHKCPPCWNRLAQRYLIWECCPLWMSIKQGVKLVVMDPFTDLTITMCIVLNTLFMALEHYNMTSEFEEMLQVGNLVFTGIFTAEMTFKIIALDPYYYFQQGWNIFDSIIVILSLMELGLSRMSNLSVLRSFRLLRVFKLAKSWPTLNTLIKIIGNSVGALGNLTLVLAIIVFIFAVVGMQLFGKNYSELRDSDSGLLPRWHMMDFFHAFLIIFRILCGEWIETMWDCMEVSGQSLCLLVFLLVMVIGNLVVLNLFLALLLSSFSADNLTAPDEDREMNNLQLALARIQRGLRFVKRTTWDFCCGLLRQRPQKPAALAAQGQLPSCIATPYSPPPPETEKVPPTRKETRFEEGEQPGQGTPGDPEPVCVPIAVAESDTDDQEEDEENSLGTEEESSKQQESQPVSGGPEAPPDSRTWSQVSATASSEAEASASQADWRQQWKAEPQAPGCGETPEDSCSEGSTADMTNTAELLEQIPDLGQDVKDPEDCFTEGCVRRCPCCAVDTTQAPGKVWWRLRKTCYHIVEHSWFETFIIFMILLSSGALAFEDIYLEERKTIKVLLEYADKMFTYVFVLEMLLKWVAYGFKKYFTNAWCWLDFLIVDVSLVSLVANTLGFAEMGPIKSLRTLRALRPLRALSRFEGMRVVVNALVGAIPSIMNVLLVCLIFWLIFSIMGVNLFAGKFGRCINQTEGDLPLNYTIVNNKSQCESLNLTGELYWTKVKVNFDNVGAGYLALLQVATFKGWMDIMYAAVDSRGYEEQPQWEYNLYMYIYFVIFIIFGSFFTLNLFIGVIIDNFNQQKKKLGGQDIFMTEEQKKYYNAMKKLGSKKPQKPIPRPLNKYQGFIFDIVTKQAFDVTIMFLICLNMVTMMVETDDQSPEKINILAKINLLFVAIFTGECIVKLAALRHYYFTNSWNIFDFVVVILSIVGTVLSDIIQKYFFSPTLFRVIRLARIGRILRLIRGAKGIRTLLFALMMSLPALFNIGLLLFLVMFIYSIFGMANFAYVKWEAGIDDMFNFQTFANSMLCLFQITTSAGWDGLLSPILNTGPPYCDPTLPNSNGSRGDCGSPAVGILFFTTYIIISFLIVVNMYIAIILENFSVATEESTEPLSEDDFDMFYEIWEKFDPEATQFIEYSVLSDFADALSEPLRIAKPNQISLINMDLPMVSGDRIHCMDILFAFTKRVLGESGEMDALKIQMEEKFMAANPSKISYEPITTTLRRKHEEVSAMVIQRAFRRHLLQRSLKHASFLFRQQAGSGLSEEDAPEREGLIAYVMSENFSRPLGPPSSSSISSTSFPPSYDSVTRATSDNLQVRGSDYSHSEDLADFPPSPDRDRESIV
# Protocol: as §1, §2, §3
# hNaV1.8-WT = biological target: T4, hNaV1.8-WT (Homo sapiens, UniProt Q9Y5Y9); assay: as above; type: cell-based; conditions: HEK293; percent inhibition measured at 1 μM; step to 0 mV from half-inactivation holding potential
# T4 construct: expressed in transfected cells; host or cells: HEK-293
# Protocol: as §1, §2, §3
# hNaV1.6-WT = biological target: T5, hNaV1.6-WT (Homo sapiens, UniProt Q9UQD0); assay: as above; type: cell-based; conditions: HEK293; percent inhibition measured at 1 μM; step to 0 mV from half-inactivation holding potential
# T5 construct: expressed in transfected cells; host or cells: HEK-293
# Protocol: as §1, §2, §3
# hNaV1.6-R223G = biological target: T6, hNaV1.6-R223G (Homo sapiens, UniProt Q9UQD0, R223G); assay: Voltage ramp activated sodium current (Ramp INa), PatchXpress, HEK-293; type: cell-based; conditions: HEK293; percent inhibition of enhanced ramp current at 1 μM; +600 mv/sec ramp from −100 mV to +20 mV
# T6 construct: expressed in transfected cells; host or cells: HEK-293
# Protocol: as §1
# (§4) The Nav1.6 mutant channels (hNaV1.6-R223G, hNaV1.6-N984K, hNaV1.6-N1768D) express an enhanced sodium current in response to a ramp voltage depolarization when compared to the wild-type hNaV1.6-WT. This enhanced, depolarizing ramp current is thought to contribute to enhanced neuronal excitability. The degree of block with exemplary compounds (e.g., as described herein) was measured using a +600 mv/sec voltage ramp from −100 mV to +20 mV. The ramp current was defined as the area of the current measured between −55 mV and +15 mV. Following steady state block with exemplary compounds (e.g., as described herein) at 1 μM, a Na^+ free solution containing an impermeant cation (e.g., Choline or NMDG) was added for determination of the baseline current level for offline subtraction. Percent inhibition of enhanced ramp current was calculated as (compound−baseline)/(control−baseline)*100, where control represents the ramp current recorded in the absence of compound. In this table, “A” indicates inhibition between less than 0% to 50% and “B” indicates inhibition of greater than 50% and N/A indicates the compound was not tested.
# hNaV1.6-N1768D = biological target: T7, hNaV1.6-N1768D (Homo sapiens, UniProt Q9UQD0, N1768D); assay: as above; type: cell-based; conditions: HEK293; percent inhibition of enhanced ramp current at 1 μM; +600 mv/sec ramp from −100 mV to +20 mV
# T7 construct: expressed in transfected cells; host or cells: HEK-293
# Protocol: as §1, §4
# hNaV1.6-N984K = biological target: T8, hNaV1.6-N984K (Homo sapiens, UniProt Q9UQD0, N984K); assay: as above; type: cell-based; conditions: HEK293; percent inhibition of enhanced ramp current at 1 μM; +600 mv/sec ramp from −100 mV to +20 mV
# T8 construct: expressed in transfected cells; host or cells: HEK-293
# Protocol: as §1, §4
# human NaV1.6 (hNaV1.6) = biological target: T9, human NaV1.6 (hNaV1.6) (Homo sapiens, UniProt Q9UQD0); assay: Modulation of late sodium current (INaL), PatchXpress electrophysiology, HEK-293 cells expressing hNaV1.6; type: cell-based; conditions: HEK293, late current evoked by 300 nM ATX-II, read-out: NaV 1.6 Assay Data: percent inhibition of INaL at hNaV1.6
# T9 construct: expressed in transfected cells; host or cells: HEK-293
# Summary of the method: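 PatchXpress automated patch clamp on HEK-293 cells expressing recombinant hNaV1.6; late current enhanced with 300 nM ATX-II. INaL evoked by 200 ms steps to 0 mV from about −120 mV at 0.1 Hz, measured as mean amplitude over the final 20 ms. Percent steady-state inhibition versus control current.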
# hNaV1.2-WT = biological target: T10, hNaV1.2-WT (Homo sapiens, UniProt Q99250); assay: Voltage step activated sodium current (Peak INa), PatchXpress, HEK-293; type: cell-based; conditions: percent inhibition measured at 1 μM; step to 0 mV from half-inactivation holding potential
# T10 construct: expressed in transfected cells; host or cells: HEK-293
# Protocol: as §1, §2, §3
# [1] = biological target: T11, human NaV 1.2 (h NaV 1.2) (Homo sapiens, UniProt Q99250); assay: Modulation of late sodium current (INaL), PatchXpress electrophysiology, HEK-293 cells expressing hNaV1.2; type: cell-based; conditions: HEK293, read-out: NaV 1.2 Assay Data: percent inhibition of INaL at hNaV1.2
# T11 construct: expressed in transfected cells; host or cells: HEK-293
# [2] = 3 mg/kg PO, pre-treatment 30 min
# [3] = 10 mg/kg PO, pre-treatment 30 min
# [4] = 1 mg/kg PO, pre-treatment 30 min
Compound,Mean latency to tonic extension (Male CD-1 mice; [2]) [s],Mean latency to tonic extension (Male CD-1 mice; [3]) [s],inhibition at 1 µM (hNaV1.7-WT) [%],hNav1.1 Peak INa (hNaV1.1-WT),inhibition at 1 µM (hNaV1.5-WT) [%],inhibition at 1 µM (hNaV1.8-WT) [%],inhibition at 1 µM (hNaV1.6-WT) [%],inhibition at 1 µM (hNaV1.6-R223G) [%],inhibition at 1 µM (hNaV1.6-N1768D) [%],inhibition at 1 µM (hNaV1.6-N984K) [%],inhibition at 1 µM (human NaV1.6 (hNaV1.6)) [%],"Mean latency to tonic extension (Male CD-1 mice; 1 mg/kg PO, pre-treatment 120 min) [s]","Mean latency to tonic extension (Male CD-1 mice; 3 mg/kg PO, pre-treatment 120 min) [s]",hNav1.2 Peak INa (hNaV1.2-WT),Mean latency to tonic extension (Male CD-1 mice; [4]) [s],inhibition at 1 µM [1] [%]
"CCOC(F)(F)c1nnc2ccc(-c3cnc(OCC(F)(F)F)c(F)c3)cn12 [Compound 3, 3-[ethoxy(difluoro)methyl]-6-[5-fluoro-6-(2,2,2-trifluoroethoxy)-3-pyridyl]-[1,2,4]triazolo[4,3-a]pyridine]",60,60,> 50,B (inhibition of greater than 50%),> 50,> 50,> 50,> 50,> 50,> 50,> 70,,,,,
"COC(F)(F)c1nnc2cnc(-c3cnc(O[C@@H](C)C(F)(F)F)c(F)c3)cn12 [Compound 6B, 3-[difluoro(methoxy)methyl]-6-[5-fluoro-6-[(1S)-2,2,2-trifluoro-1-methyl-ethoxy]-3-pyridyl]-[1,2,4]triazolo[4,3-a]pyrazine]",,,> 50,B (inhibition of greater than 50%),> 50,> 50,> 50,> 50,> 50,> 50,> 70,17.3,50.5,B (inhibition of greater than 50%),,
CCOC(F)(F)c1nnc2cnc(-c3cnc(OCC(F)(F)F)c(F)c3)cn12 [Compound 10],36.3,55.2,> 50,B (inhibition of greater than 50%),> 50,> 50,> 50,> 50,> 50,< 50,> 70,,,A (inhibition between less than 0% to 50%),7.9,> 70
"COC(F)(F)c1nnc2cnc(-c3cnc(OC4(C(F)(F)F)CCC4)c(F)c3)cn12 [Compound 11, 3-[difluoro(methoxy)methyl]-6-[5-fluoro-6-[1-(trifluoromethyl)cyclobutoxy]-3-pyridyl]-[1,2,4]triazolo[4,3-a]pyrazine]",,,> 50,B (inhibition of greater than 50%),> 50,> 50,> 50,< 50,> 50,> 50,> 70,,,,,
"CCOC(F)(F)c1nnc2ccc(-c3cnc(OCC(F)(F)F)c(F)c3)nn12 [Compound 16, 3-[ethoxy(difluoro)methyl]-6-[5-fluoro-6-(2,2,2-trifluoroethoxy)-3-pyridyl]-[1,2,4]triazolo[4,3-b]pyridazine]",,,,,,,,,,,> 70,,,,,> 70
COCc1nnc2cnc(-c3cnc(OC(C)(C)C(F)(F)F)c(F)c3)cn12 [Compound 48],42.5,60,> 50,,> 50,> 50,> 50,< 50,> 50,< 50,> 70,,,,,
"COC(F)(F)c1nnc2cnc(-c3cnc(OCC(F)(F)F)c(F)c3)cn12 [Compound 53, 3-[difluoro(methoxy)methyl]-6-[5-fluoro-6-(2,2,2-trifluoroethoxy)-3-pyridyl]-[1,2,4]triazolo[4,3-a]pyrazine]",60,60,> 50,B (inhibition of greater than 50%),> 50,> 50,> 50,< 50,> 50,< 50,> 70,,,A (inhibition between less than 0% to 50%),36.4,> 70
"COC(F)(F)c1nnc2cnc(-c3ccc(OC(C)(C)C(F)(F)F)nc3)cn12 [Compound 56, 3-[difluoro(methoxy)methyl]-6-[6-(2,2,2-trifluoro-1,1-dimethyl-ethoxy)-3-pyridyl]-[1,2,4]triazolo[4,3-a]pyrazine]",,,> 50,B (inhibition of greater than 50%),> 50,> 50,> 50,< 50,> 50,> 50,> 70,,,B (inhibition of greater than 50%),,> 70
"COC(F)(F)c1nnc2cnc(-c3ccc(O[C@@H](C)C(F)(F)F)nc3)cn12 [Compound 59, 3-[difluoro(methoxy)methyl]-6-[6-[(1S)-2,2,2-trifluoro-1-methyl-ethoxy]-3-pyridyl]-[1,2,4]triazolo[4,3-a]pyrazine]",,,> 50,B (inhibition of greater than 50%),> 50,> 50,> 50,> 50,> 50,> 50,> 70,,,B (inhibition of greater than 50%),,> 70
